Target: KiSS-1 receptor (Homo sapiens, UniProt Q969F8)
Experiment: Binding Assay

KiSS-1 receptor, sequence (Q969F8 whole entry): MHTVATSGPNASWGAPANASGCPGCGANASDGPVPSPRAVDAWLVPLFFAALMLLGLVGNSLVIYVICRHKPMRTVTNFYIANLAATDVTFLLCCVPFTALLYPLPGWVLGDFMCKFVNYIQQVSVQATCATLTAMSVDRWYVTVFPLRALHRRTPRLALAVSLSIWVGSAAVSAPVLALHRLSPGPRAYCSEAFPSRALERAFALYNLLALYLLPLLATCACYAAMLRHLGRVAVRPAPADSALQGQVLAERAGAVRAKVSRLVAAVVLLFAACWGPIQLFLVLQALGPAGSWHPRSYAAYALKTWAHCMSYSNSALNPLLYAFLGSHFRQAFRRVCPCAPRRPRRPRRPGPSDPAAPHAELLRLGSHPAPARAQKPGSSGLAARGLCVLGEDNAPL

`CNC[C@@H](O)CC(CC(C)C)C(C)=O` (stereo partly specified) [US8592379, 37] was tested, and the IC50 was 0.24 nM.

— BindingDB's records for patent US8592379 (Kyoto University, 2013)
